± gives the standard deviation of the averaged measurements.
Assays:
Experiment in all cases: level (log10 ratio to DMSO vehicle control); higher = higher biomarker level / cell amount than vehicle control
Conditions in all cases: in DMSO
[1] = compound: FC(F)(F)C(F)(C(F)(F)F)C(F)(F)C(F)(F)CC1CO1 [3-(Perfluoro-3-methylbutyl)-1,2-propenoxide]
Procedure: (§1)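 BioMAP Diversity Plus panel of 12 human primary cell co-culture systems (3C, 4H, LPS, SAg, BT, BF4T, BE3C, CASM3C, HDF3CGF, KF3CT, MyoF, Mphg). Compounds were added 1 h before stimulation and left for 24 h (MyoF 48 h; BT 72 h for soluble read-outs or 6 d for IgG). Biomarkers were read by ELISA, cytotoxicity by SRB, PBMC viability and proliferation by Alamar Blue. Each well value was divided by the mean of 8 DMSO control wells on the same plate and log10 transformed; duplicate blinded samples were tested at 4 concentrations.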

Pentafluoropropionamide = compound: NC(=O)C(F)(F)C(F)(F)F [Pentafluoropropionamide]
Procedure: as §1

[2] = compound: O=C(O)C(F)(F)C(F)(F)C(F)(F)C(F)(F)C(F)(F)C(F)(F)C(F)(F)C(F)F [9-H-Perfluorononanoic acid]
Procedure: as §1

[3] = compound: O=C(O)C(F)(F)C(F)(F)C(F)(F)OC(F)(C(F)(F)F)C(F)(F)F [Perfluoro-4-isopropoxybutanoic acid]
Procedure: as §1

[4] = compound: O=C(O)C(F)(F)C(F)(F)OC(F)(F)F [Perfluoro-3-methoxypropanoic acid]
Procedure: as §1

[5] = compound: O=S(=O)(O)C(F)(F)C(F)(F)C(F)(F)C(F)(F)C(F)(F)C(F)(F)F [Perfluorohexanesulfonic acid]
Procedure: as §1

[6] = compound: OCCC(F)(F)C(F)(F)C(F)(F)C(F)(F)C(F)(F)C(F)(F)F [6:2 Fluorotelomer alcohol]
Procedure: as §1

Row | Test System | level (log10) ([1]; 6700 nM) | level (log10) ([1]; 20000 nM) | level (log10) (Pentafluoropropionamide; 6700 nM) | level (log10) (Pentafluoropropionamide; 20000 nM) | level (log10) (Pentafluoropropionamide; 60000 nM) | level (log10) ([2]; 6700 nM) | level (log10) ([2]; 20000 nM) | level (log10) ([2]; 60000 nM) | level (log10) ([3]; 6700 nM) | level (log10) ([3]; 20000 nM) | level (log10) ([3]; 60000 nM) | level (log10) ([4]; 6700 nM) | level (log10) ([4]; 20000 nM) | level (log10) ([4]; 60000 nM) | level (log10) ([5]; 6700 nM) | level (log10) ([5]; 20000 nM) | level (log10) ([5]; 60000 nM) | level (log10) ([6]; 6700 nM) | level (log10) ([6]; 20000 nM)
1 | 4H:SRB | 0 ± 0.025 | -0.019 ± 0.0071 | -0.0055 ± 0.021 | -0.0095 ± 0.0078 | -0.0135 ± 0.016 | 0.008 ± 0.033 | -0.0115 ± 0.025 | -0.039 ± 0.0099 | -0.0085 ± 0.021 | -0.008 ± 0.023 | -0.0275 ± 0.019 | -0.013 ± 0.0071 | -0.004 ± 0.0071 | 0.0015 ± 0.033 | -0.0245 ± 0.015 | -0.025 ± 0.017 | -0.045 ± 0.023 | -0.011 ± 0.024 | -0.006 ± 0.024
2 | LPS:sPGE2 | -0.012 ± 0.023 | -0.0095 ± 0.054 | 0.032 ± 0.0085 | -0.008 ± 0.0071 | -0.018 ± 0.014 | 0.005 ± 0.0057 | -0.0205 ± 0.0092 | -0.096 ± 0.0042 | -0.0145 ± 0.043 | -0.0585 ± 0.022 | -0.0615 ± 0.023 | -0.0295 ± 0.03 | 0.0045 ± 0.052 | -0.0185 ± 0.011 | 0.0115 ± 0.0064 | -0.007 ± 0.0099 | -0.106 ± 0.028 | -0.028 ± 0.05 | -0.0465 ± 0.039
3 | SAg:CD40 | -0.018 ± 0.025 | -0.0205 ± 0.039 | -0.041 ± 0.0071 | -0.0195 ± 0.015 | -0.0445 ± 0.0021 | -0.0265 ± 0.012 | -0.0275 ± 0.016 | -0.059 ± 0.02 | 0.0105 ± 0.023 | 0.0165 ± 0.005 | -0.008 ± 0.018 | 0.013 ± 0.0071 | 0.01 ± 0.0042 | -0.0055 ± 0.019 | 0.001 ± 0.0071 | -0.012 ± 0.0099 | -0.029 ± 0.011 | -0.003 ± 0.0085 | 0.0005 ± 0.0021
4 | LPS:CD62E/E-Selectin | 0.0165 ± 0.0035 | 0.0245 ± 0.025 | -0.0265 ± 0.025 | -0.0185 ± 0.028 | -0.004 ± 0.0071 | 0.0005 ± 0.042 | 0.003 ± 0.0071 | 0.0525 ± 0.0035 | -0.004 ± 0.013 | -0.013 ± 0.048 | 0.001 ± 0.021 | -0.0015 ± 0.011 | -0.0075 ± 0.005 | 0.0105 ± 0.0035 | -0.0035 ± 0.023 | 0.0025 ± 0.0064 | 0.008 ± 0.035 | 0.01 ± 0.038 | -0.025 ± 0.025
5 | BF4T:PAI-I | -0.0045 ± 0.013 | 0.0005 ± 0.016 | -0.0005 ± 0.0035 | -0.005 ± 0.016 | 0.0015 ± 0.011 | -0.099 ± 0.0028 | -0.0915 ± 0.0021 | -0.114 ± 0.0099 | 0.004 ± 0.0057 | 0.0125 ± 0.0035 | 0.0085 ± 0.018 | 0.0015 ± 0.0064 | 0.0105 ± 0.0092 | 0.015 ± 0.017 | 0.0005 ± 0.03 | -0.015 ± 0.017 | -0.018 ± 0.0028 | 0.013 ± 0.013 | 0.011 ± 0.0099
6 | 4H:CD106/VCAM-1 | 0.0245 ± 0.043 | 0.0215 ± 0.042 | -0.02 | -0.011 ± 0.03 | 0.0015 ± 0.0092 | 0.005 ± 0.054 | 0.0095 ± 0.016 | -0.001 ± 0.016 | 0.0075 ± 0.011 | -0.019 ± 0.0028 | -0.011 ± 0.025 | 0.0005 ± 0.016 | -0.005 ± 0.0085 | 0.007 ± 0.0057 | -0.013 ± 0.0042 | -0.023 ± 0.0042 | -0.012 ± 0.014 | 0 ± 0.0057 | -0.002 ± 0.0057
7 | 3C:SRB | 0.0045 ± 0.0064 | -0.01 ± 0.0057 | 0.008 ± 0.031 | -0.001 ± 0.011 | -0.025 ± 0.011 | -0.005 ± 0.028 | -0.0115 ± 0.016 | -0.052 ± 0.025 | 0.0005 ± 0.011 | -0.0075 ± 0.015 | -0.017 ± 0.024 | 0.001 ± 0.0014 | 0.0005 ± 0.019 | -0.004 ± 0.017 | -0.011 ± 0.0085 | -0.014 ± 0.0014 | -0.0425 ± 0.019 | -0.006 ± 0.023 | 0.004 ± 0.028
8 | LPS:sTNF-alpha | 0.0005 ± 0.0078 | -0.0025 ± 0.005 | 0.05 ± 0.0014 | 0.0015 ± 0.023 | 0.0095 ± 0.04 | -0.0145 ± 0.012 | -0.0055 ± 0.016 | -0.0115 ± 0.019 | -0.0215 ± 0.15 | -0.012 ± 0.13 | -0.031 ± 0.1 | 0.036 ± 0.011 | 0.036 ± 0.045 | 0.06 ± 0.059 | -0.007 ± 0.025 | -0.0195 ± 0.015 | -0.0695 ± 0.0092 | -0.0335 ± 0.17 | -0.016 ± 0.16
9 | LPS:CD106/VCAM-1 | -0.0085 ± 0.019 | 0.015 ± 0.013 | -0.041 ± 0.0014 | -0.021 ± 0.0099 | -0.0135 ± 0.018 | -0.0165 ± 0.013 | -0.006 ± 0.0028 | 0.0075 ± 0.033 | -0.0015 ± 0.016 | -0.0075 ± 0.0078 | -0.0095 ± 0.028 | 0.0065 ± 0.013 | -0.0065 ± 0.00071 | -0.01 ± 0.0028 | -0.016 ± 0.017 | -0.0155 ± 0.015 | 0.005 ± 0.016 | -0.0045 ± 0.0078 | -0.0025 ± 0.011
10 | BE3C:CXCL8/IL-8 | 0.011 | 0.0205 ± 0.023 | 0.016 ± 0.028 | 0.0125 ± 0.074 | 0.0445 ± 0.044 | 0.0255 ± 0.084 | 0.0435 ± 0.059 | 0.0385 ± 0.023 | 0.0175 ± 0.025 | 0.0185 ± 0.019 | 0.015 ± 0.038 | -0.0445 ± 0.0064 | -0.031 ± 0.0028 | -0.007 ± 0.03 | 0.017 ± 0.0071 | 0.0175 ± 0.023 | -0.032 ± 0.044 | 0.01 ± 0.048 | -0.0085 ± 0.021
11 | BT:sIL-2 | -0.0405 ± 0.042 | 0.071 ± 0.072 | 0.0375 ± 0.0092 | 0.002 ± 0.03 | 0.038 ± 0.017 | -0.0245 ± 0.057 | 0.006 ± 0.05 | 0.0195 ± 0.032 | 0.0175 ± 0.042 | 0.007 ± 0.016 | 0.0175 ± 0.035 | -0.002 ± 0.13 | -0.0015 ± 0.032 | 0.016 ± 0.0042 | -0.059 ± 0.031 | 0.0015 ± 0.035 | -0.001 ± 0.027 | -0.008 ± 0.057 | -0.0135 ± 0.019
12 | BE3C:CXCL9/MIG | -0.005 ± 0.0042 | -0.0035 ± 0.005 | 0.004 ± 0.0028 | -0.0015 ± 0.011 | 0.0075 ± 0.0035 | -0.0255 ± 0.005 | -0.0285 ± 0.005 | -0.02 ± 0.0099 | 0.001 ± 0.0028 | 0.012 ± 0.0071 | 0.014 ± 0.017 | 0.005 ± 0.0014 | 0.0095 ± 0.018 | 0.0105 ± 0.0021 | 0.0035 ± 0.0092 | -0.001 ± 0.0028 | -0.007 ± 0.0028 | 0.01 ± 0.0057 | 0.001 ± 0.0057
13 | BF4T:CXCL8/IL-8 | 0.0045 ± 0.015 | 0.014 ± 0.03 | 0.019 ± 0.028 | 0.0175 ± 0.022 | 0.02 ± 0.02 | 0.0365 ± 0.021 | 0.038 ± 0.023 | 0.0565 ± 0.016 | 0.0025 ± 0.0064 | 0.0145 ± 0.005 | 0.0235 ± 0.028 | -0.004 ± 0.025 | -0.0225 ± 0.042 | 0.001 ± 0.068 | 0.002 ± 0.0085 | 0.0075 ± 0.0078 | 0.0255 ± 0.018 | 0.0185 ± 0.015 | 0.0005 ± 0.005
14 | 4H:CD62P/P-selectin | -0.0085 ± 0.0064 | 0.0305 ± 0.012 | -0.023 ± 0.054 | -0.0265 ± 0.0078 | -0.0475 ± 0.03 | 0.033 ± 0.078 | 0.0825 ± 0.0035 | 0.149 ± 0.014 | 0.001 ± 0.021 | 0.0165 ± 0.012 | 0.048 ± 0.033 | -0.004 ± 0.0057 | 0.005 ± 0.011 | 0.0065 ± 0.029 | 0.008 ± 0.058 | 0.0555 ± 0.043 | 0.112 ± 0.066 | 0.0165 ± 0.012 | -0.004 ± 0.02
15 | SAg:Proliferation | 0.028 ± 0.017 | 0.007 ± 0.12 | 0.0045 ± 0.016 | 0.0135 ± 0.022 | 0.045 ± 0.0028 | 0.052 ± 0.065 | 0.0735 ± 0.037 | 0.048 ± 0.095 | -0.018 ± 0.0042 | -0.007 ± 0.0028 | 0.0175 ± 0.04 | -0.0075 ± 0.035 | -0.015 ± 0.033 | 0.0005 ± 0.026 | -0.0215 ± 0.016 | 0.0015 ± 0.0064 | 0.021 ± 0.024 | -0.015 ± 0.027 | -0.024 ± 0.013

From the supplement of paper PMC10331698
